# From the supplement of paper PMC11061612
# How the values were obtained:
# AZD7648 = compound: Cc1cc2ncnn2cc1Nc1ncc2c(n1)n(C1CCOCC1)c(=O)n2C [AZD7648]; details: max 10 µM
# How it was run: (§1)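 Cancer cell lines were dosed for 72 hours (final DMSO typically 0.2%) after 24 hours at 37°C and 5% CO2 in 1536-well plates containing 7.5 μl DMEM/F12 or RPMI with 10% FBS. Viability came from CellTiter-Glo 2.0 luminescence, scaled between blank-well and DMSO-well means, and dose responses were fitted to a two-parameter logistic curve with a non-linear mixed effects model. The single-agent IC50 was obtained from this fit.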
# 5-Fluorouracil = compound: O=c1[nH]cc(F)c(=O)[nH]1 [5-Fluorouracil]; details: max 20 µM
# How it was run: as §1
# AZD1390 = compound: CC(C)n1c(=O)n(C)c2cnc3cc(F)c(-c4ccc(OCCCN5CCCCC5)nc4)cc3c21 [AZD1390]; details: max 0.3 µM
# How it was run: as §1
# Dasatinib = compound: CC1=C(C(=CC=C1)Cl)NC(=O)C2=CN=C(S2)NC3=CC(=NC(=N3)C)N4CCN(CC4)CCO [Dasatinib]; details: max 2 µM
# How it was run: as §1
# AZD5153 = compound: COc1nnc2ccc(N3CCC(c4ccc(OCCN5CCN(C)C(=O)[C@H]5C)cc4)CC3)nn12 [AZD5153]; details: max 1 µM
# How it was run: as §1
# Prexasertib = compound: COc1cccc(OCCCN)c1-c1cc(Nc2cnc(C#N)cn2)n[nH]1 [Prexasertib]; details: max 1 µM
# How it was run: as §1
# AZD0156 = compound: CN(C)CCCOc1ccc(-c2ccc3ncc4c(c3c2)n(C2CCOCC2)c(=O)n4C)cn1 [AZD0156]; details: max 3 µM
# How it was run: as §1
# Gefitinib = compound: COc1cc2ncnc(Nc3ccc(F)c(Cl)c3)c2cc1OCCCN1CCOCC1 [Gefitinib]; details: max 10 µM
# How it was run: as §1
# AZD2811 = compound: CCN(CCO)CCCOc1ccc2c(Nc3cc(CC(=O)Nc4cccc(F)c4)[nH]n3)ncnc2c1 [AZD2811]; details: max 1 µM
# How it was run: as §1
# Selumetinib = compound: Cn1cnc2c(F)c(Nc3ccc(Br)cc3Cl)c(C(=O)NOCCO)cc21 [Selumetinib]; details: max 10 µM
# How it was run: as §1
# Lapatinib = compound: CS(=O)(=O)CCNCc1ccc(-c2ccc3ncnc(Nc4ccc(OCc5cccc(F)c5)c(Cl)c4)c3c2)o1 [Lapatinib]; details: max 10 µM
# How it was run: as §1
# Trametinib = compound: CC(=O)Nc1cccc(-n2c(=O)n(C3CC3)c(=O)c3c(Nc4ccc(I)cc4F)n(C)c(=O)c(C)c32)c1 [Trametinib]; details: max 1 µM
# How it was run: as §1
# Carboplatin = compound: C1CC(C1)(C(=O)[O-])C(=O)[O-].N.N.[Pt+2] [Carboplatin]; details: max 10 µM
# How it was run: as §1
# AZD1775 = compound: C=CCn1c(=O)c2cnc(Nc3ccc(N4CCN(C)CC4)cc3)nc2n1-c1cccc(C(C)(C)O)n1 [AZD1775]; details: max 3 µM
# How it was run: as §1
# Gemcitabine = compound: Nc1ccn([C@@H]2O[C@H](CO)[C@@H](O)C2(F)F)c(=O)n1 [Gemcitabine]; details: max 0.3 µM
# How it was run: as §1
# AZD4320 = compound: CN(CC[C@H](CSC1=CC=CC=C1)NC2=C(C=C(C=C2)S(=O)(=O)NC(=O)C3=CC=C(C=C3)N4CCC(CC4)[C@H](C5=CC=CC=C5C6=CC=C(C=C6)Cl)O)S(=O)(=O)C(F)(F)F)CCO [AZD4320]; details: max 1 µM
# How it was run: as §1
# Doxorubicin = compound: COc1cccc2c1C(=O)c1c(O)c3c(c(O)c1C2=O)C[C@@](O)(C(=O)CO)C[C@@H]3O[C@H]1C[C@H](N)[C@H](O)[C@H](C)O1 [Doxorubicin]; details: max 1 µM
# How it was run: as §1
# AZD5363 = compound: C1CN(CCC1(C(=O)N[C@@H](CCO)C2=CC=C(C=C2)Cl)N)C3=NC=NC4=C3C=CN4 [AZD5363]; details: max 10 µM
# How it was run: as §1
# Alisertib = compound: COc1cc(Nc2ncc3c(n2)-c2ccc(Cl)cc2C(c2c(F)cccc2OC)=NC3)ccc1C(=O)O [Alisertib]; details: max 10 µM
# How it was run: as §1
# Crizotinib = compound: C[C@@H](Oc1cc(-c2cnn(C3CCNCC3)c2)cnc1N)c1c(Cl)ccc(F)c1Cl [Crizotinib]; details: max 10 µM
# How it was run: as §1
# AZD8186 = compound: C[C@@H](Nc1cc(F)cc(F)c1)c1cc(C(=O)N(C)C)cc2c(=O)cc(N3CCOCC3)oc12 [AZD8186]; details: max 10 µM
# How it was run: as §1
# Olaparib = compound: O=C(c1cc(Cc2n[nH]c(=O)c3ccccc23)ccc1F)N1CCN(C(=O)C2CC2)CC1 [Olaparib]; details: max 10 µM
# How it was run: as §1
# SN-38 = compound: CCc1c2c(nc3ccc(O)cc13)-c1cc3c(c(=O)n1C2)COC(=O)[C@]3(O)CC [SN-38]; details: max 0.3 µM
# How it was run: as §1
# MK-2206 = compound: NC1(c2ccc(-c3nc4ccn5c(=O)[nH]nc5c4cc3-c3ccccc3)cc2)CCC1 [MK-2206]; details: max 10 µM
# How it was run: as §1
# SG3199 = compound: CC1=CN2[C@@H](C1)C=NC3=CC(=C(C=C3C2=O)OC)OCCCCCOC4=C(C=C5C(=C4)N=C[C@@H]6CC(=CN6C5=O)C)OC [SG3199]; details: max 0.001 µM
# How it was run: as §1
# AZD5991 = compound: Cc1c2c(nn1C)CSCc1cc(n(C)n1)CSc1cc(c3ccccc3c1)OCCCc1c(C(=O)O)n(C)c3c-2c(Cl)ccc13 [AZD5991]; details: max 1 µM
# How it was run: as §1
# Savolitinib = compound: C[C@@H](c1ccc2nccn2c1)n1nnc2ncc(-c3cnn(C)c3)nc21 [Savolitinib]; details: max 1 µM
# How it was run: as §1
# Etoposide = compound: COc1cc([C@@H]2c3cc4c(cc3[C@@H](O[C@@H]3O[C@@H]5CO[C@@H](C)O[C@H]5[C@H](O)[C@H]3O)[C@H]3COC(=O)[C@H]23)OCO4)cc(OC)c1O [Etoposide]; details: max 10 µM
# How it was run: as §1
# Palbociclib = compound: CC(=O)c1c(C)c2cnc(Nc3ccc(N4CCNCC4)cn3)nc2n(C2CCCC2)c1=O [Palbociclib]; details: max 10 µM
# How it was run: as §1
# SRA737 = compound: N#Cc1cnc(Nc2cc(NC[C@H]3CNCCO3)c(C(F)(F)F)cn2)cn1 [SRA737]; details: max 10 µM
# How it was run: as §1
# Venetoclax = compound: CC1(C)CCC(CN2CCN(c3ccc(C(=O)NS(=O)(=O)c4ccc(NCC5CCOCC5)c([N+](=O)[O-])c4)c(Oc4cnc5[nH]ccc5c4)c3)CC2)=C(c2ccc(Cl)cc2)C1 [Venetoclax]; details: max 1 µM
# How it was run: as §1
# Taselisib = compound: Cc1nc(-c2cn3c(n2)-c2ccc(-c4cnn(C(C)(C)C(N)=O)c4)cc2OCC3)n(C(C)C)n1 [Taselisib]; details: max 10 µM
# How it was run: as §1
# [1] = compound: O=C(Nc1ccc2[nH]nc(-c3ccncc3)c2c1)[C@@H]1CCN(CC(=O)N2CCN(c3ccc(-c4ncccn4)cc3)CC2)C1; details: max 5 µM
# How it was run: as §1
# AZD6738 = compound: C[C@@H]1COCCN1C2=NC(=NC(=C2)C3(CC3)[S@](=N)(=O)C)C4=C5C=CNC5=NC=C4 [AZD6738]; details: max 10 µM
# How it was run: as §1
# Paclitaxel = compound: CC(=O)O[C@H]1C(=O)[C@@]2(C)[C@H]([C@H](OC(=O)c3ccccc3)[C@]3(O)C[C@H](OC(=O)[C@H](O)[C@@H](NC(=O)c4ccccc4)c4ccccc4)C(C)=C1C3(C)C)[C@]1(OC(C)=O)CO[C@@H]1C[C@@H]2O [Paclitaxel]; details: max 3 µM
# How it was run: as §1
Cell Line,"IC50, cell viability 72 h (AZD7648)","IC50, cell viability 72 h (5-Fluorouracil)","IC50, cell viability 72 h (AZD1390)","IC50, cell viability 72 h (Dasatinib)","IC50, cell viability 72 h (AZD5153)","IC50, cell viability 72 h (Prexasertib)","IC50, cell viability 72 h (AZD0156)","IC50, cell viability 72 h (Gefitinib)","IC50, cell viability 72 h (AZD2811)","IC50, cell viability 72 h (Selumetinib)","IC50, cell viability 72 h (Lapatinib)","IC50, cell viability 72 h (Trametinib)","IC50, cell viability 72 h (Carboplatin)","IC50, cell viability 72 h (AZD1775)","IC50, cell viability 72 h (Gemcitabine)","IC50, cell viability 72 h (AZD4320)","IC50, cell viability 72 h (Doxorubicin)","IC50, cell viability 72 h (AZD5363)","IC50, cell viability 72 h (Alisertib)","IC50, cell viability 72 h (Crizotinib)","IC50, cell viability 72 h (AZD8186)","IC50, cell viability 72 h (Olaparib)","IC50, cell viability 72 h (SN-38)","IC50, cell viability 72 h (MK-2206)","IC50, cell viability 72 h (SG3199)","IC50, cell viability 72 h (AZD5991)","IC50, cell viability 72 h (Savolitinib)","IC50, cell viability 72 h (Etoposide)","IC50, cell viability 72 h (Palbociclib)","IC50, cell viability 72 h (SRA737)","IC50, cell viability 72 h (Venetoclax)","IC50, cell viability 72 h (Taselisib)","IC50, cell viability 72 h [1]","IC50, cell viability 72 h (AZD6738)","IC50, cell viability 72 h (Paclitaxel)"
SKN (Other Solid Carcinomas),> 10 µM,> 20 µM,> 0.3 µM,0.179 µM,0.446 µM,> 1 µM,> 3 µM,> 10 µM,> 1 µM,> 10 µM,> 10 µM,> 1 µM,> 10 µM,> 3 µM,> 0.3 µM,> 1 µM,> 1 µM,5.64 µM,> 10 µM,> 10 µM,1.84 µM,> 10 µM,> 0.3 µM,> 10 µM,> 0.001 µM,> 1 µM,> 1 µM,> 10 µM,> 10 µM,> 10 µM,> 1 µM,2.87 µM,> 5 µM,> 10 µM,0.0953 µM
SNU-387 (Hepatocellular Carcinoma),> 10 µM,> 20 µM,> 0.3 µM,> 2 µM,> 1 µM,0.555 µM,> 3 µM,> 10 µM,> 1 µM,> 10 µM,> 10 µM,0.583 µM,> 10 µM,1.03 µM,> 0.3 µM,> 1 µM,> 1 µM,> 10 µM,> 10 µM,> 10 µM,8.36 µM,> 10 µM,> 0.3 µM,> 10 µM,> 0.001 µM,> 1 µM,> 1 µM,> 10 µM,> 10 µM,> 10 µM,> 1 µM,> 10 µM,> 5 µM,> 10 µM,0.0274 µM
SW872 (Other Solid Carcinomas),> 10 µM,8.43 µM,> 0.3 µM,> 2 µM,0.793 µM,0.156 µM,> 3 µM,> 10 µM,> 1 µM,> 10 µM,> 10 µM,> 1 µM,> 10 µM,> 3 µM,0.0691 µM,> 1 µM,0.784 µM,> 10 µM,> 10 µM,> 10 µM,> 10 µM,> 10 µM,0.0209 µM,> 10 µM,> 0.001 µM,> 1 µM,> 1 µM,6.82 µM,> 10 µM,> 10 µM,> 1 µM,8.84 µM,> 5 µM,> 10 µM,0.21 µM
SW982 (Other Solid Carcinomas),> 10 µM,11.3 µM,> 0.3 µM,0.068 µM,0.0633 µM,0.0913 µM,> 3 µM,> 10 µM,0.444 µM,> 10 µM,> 10 µM,0.702 µM,> 10 µM,1.14 µM,0.0136 µM,> 1 µM,0.0804 µM,> 10 µM,1.04 µM,3.59 µM,4.65 µM,> 10 µM,0.00938 µM,> 10 µM,> 0.001 µM,> 1 µM,> 1 µM,0.789 µM,4.39 µM,> 10 µM,> 1 µM,2.62 µM,2.85 µM,5.53 µM,0.00645 µM
